The source of these data is patent publication US10550166B2, “Immunogenic peptides of the cyclin B1 tumor antigen” (Commissariat a l'Energie Atomique et aux Energies …, priority 2013, dated 2020).

Assay [1] deals with class II HLA molecules. Kind of assay: number of class II HLA molecules bound out of the 12 tested. Type of assay: binding, human.
For assay [2], the system named is CD4+ T lymphocytes. The experiment in a line: induction of peptide-specific CD4+ T lymphocyte lines with peptide-loaded dendritic cells, Elispot. The following applies: for Average strength (%): CD4+ T response, 13 healthy donors; for frequency: frequency of responders among 13 donors; for responders: number of responding donors out of 13; for Number of specific responses, total: total over 13 healthy donors. The format is cell-based, human. The text has this:
The blood samples (buffy coat) come from the Etablissement Francais du Sang [French blood bank] (Rungis center). The peripheral blood mononuclear cells (PBMCs) were isolated by means of a ficoll gradient. The immature dendritic cells (DCs) were obtained from the PBMCs by differentiation of the adherent cells after 5 days of culture in AIM-V medium (Life Technologies) containing 1000 U/ml of IL-4 and 1000 U/ml of GM-CSF (R&D Systems). The mature DCs were obtained from the immature DCs after having been cultured for two days in the presence of lipopolysaccharide (LPS). The CD4^+ T lymphocytes were purified from the PBMCs using magnetic microbeads coupled to anti-CD4 antibodies (Miltenyi Biotec). The HLA-DRB1 genotyping of the donors was carried out by sequence-specific PCR using the All Set^+™ Gold SSP HLA-DRB1 kit (Invitrogen).
The CD4^+ T lymphocytes (1 to 3×10^5) were cultured in round-bottomed 96-well plates with autologous immature DCs preloaded with 1.2 μM of CCNB1 and matured in the presence of LPS, or with autologous mature DCs preloaded with pools of peptides (10 μg/ml). The culturing is carried out in IMDM medium (Life Technologies) supplemented with human serum of group AB (complete IMDM medium) containing 1000 U/ml of IL-6 (R&D Systems) and 10 ng/ml of IL-12 (R&D Systems). The culture is stimulated at the end of one week by adding 10 000 to 30 000 DCs loaded with the CCNB1 protein or the pools of peptides, 20 U/ml of IL-2 (R&D Systems) and 10 ng/ml of IL-7 (R&D Systems). Another stimulation is carried out after 14 and optionally 21 days of culture. Between 5 and 7 days after the final stimulation, a specificity test is carried out by EliSpot. Each culture well constitutes a CD4^+ T lymphocyte line.
The anti-human IFN-γ antibody 1-D1K (Mabtech) is adsorbed at 2.5 μg/ml in 1×PBS onto 96-well Multiscreen®-HA plates (Millipore) by overnight incubation at 4° C. The plates are then saturated by incubation for 2 hours at 37° C. with complete IMDM medium. The CD4^+ T lymphocytes are incubated for 16 hours at 37° C. in these plates after having been washed in AIM-V/IL-7 medium (0.5 ng/ml of IL-7). The autologous immature DCs (5000 cells/well) preloaded for 4 hours with the CCNB1 protein or KLH (0.5 to 3 μM) or PBMCs (50 000 cells/well) incubated in the presence of 10 μg/ml of peptides are used as presenting cells. After incubation, the plates are washed with distilled water, PBS/0.05% Tween and PBS. 100 μl/well of biotinylated anti-human IFN-γ Ab 7-B6-1 (Mabtech) at 0.25 μg/ml in 1×PBS/1% BSA is added to the plates, which are incubated for 1 h 30 min at 37° C. […] After 5 to 10 minutes of incubation, the reaction is stopped by washing with running water. After drying, the spots are counted on an Elispot reader (AID). A CD4^+ T lymphocyte line is considered to be antigen-specific if the number of spots in the wells containing the antigen is at least two times higher than the well not containing the antigen, the difference between the 2 types of well being at least greater than 25. The frequency of the CD4^+ T lymphocytes present in the donor blood is estimated using the Poisson's law distribution according to the formula: frequency=−Ln ((number of nonspecific lines/total number of lines tested))/(number of CD4^+ lymphocytes incubated in each well).
13 healthy donors comprising HLA molecules which are varied and most of which are very frequent in the Caucasian population were selected (Table IX).
CD4^+ T lymphocyte lines were obtained by coculture of the CD4^+ T lymphocytes with autologous dendritic cells preloaded with pools of peptides. After amplification of the T lymphocytes, each line was tested by Elispot (Table IX). The results are reported in the form of the number of times when a response to a peptide is observed. All the peptides induce a T lymphocyte response, but the strength of the response and the number of responders are very variable. 9 peptides activate T lymphocytes in more than half the donors.

[3] abbreviates: Donor 56, HLA-DRB1 typing 07:01/11:01.
[4] abbreviates: Donor 22, HLA-DRB1 typing 01:01/09:01.
Setting [5] is: Donor 31, HLA-DRB1 typing 13:01/16:01.
Setting [6] is: Donor 14, HLA-DRB1 typing 07:01/13:01.
[7] abbreviates: Donor 876, HLA-DRB1 typing 11:01/11:04.

Consider EQLQAKMPMKKEAKP [Peptide 54-68], for which the “Number HLA II” value in assay [1] was determined as 1.

Turning to “GNMRAILIDWLVQVQMKF (H-GNMRAILIDWLVQVQMKF-NH2) [Peptide 199-216]”, in assay [2], the “Average strength (%)” value is 1.2%; the frequency was determined as 38%; the responders is recorded as 5; the “Number of specific responses, total” value was determined as 8. Also, in assay [2] (setting [3]), the “Number of specific responses” value worked out at 3.

“HQIRQMEMKILRALNFGLGR (H-HQIRQMEMKILRALNFGLGR-NH2) [Peptide 280-299]”: in assay [2], the “Average strength (%)” value is listed as 3.5%; the frequency was found to be 85%; the responders was determined as 11; the “Number of specific responses, total” value is reported as 23. In addition, the “Number of specific responses” value in assay [2] (setting [4]) was 3. The “Number of specific responses” value in assay [2] (Donor 26, HLA-DRB1 typing 11:04/15:01) was determined as 3. The “Number of specific responses” value in assay [2] (setting [5]) is 3.

Regarding “HTLAKYLMELTMLDY (H-HTLAKYLMELTMLDY-NH2) [Peptide 320-334]”, the “Number HLA II” value in assay [1] is 12.

In assay [2], “HTLAKYLMELTMLDYDMV (H-HTLAKYLMELTMLDYDMV-NH2) [Peptide 320-337]” displayed a frequency of 38% and a responders of 5.

With KHMTVKNKYATSKHA [Peptide 396-410], the “Number HLA II” value in assay [1] worked out at 2.

For the sequence KKMLQLVGVTAMFIA [Peptide 241-255], the “Number HLA II” value in assay [1] was determined as 8.

Regarding “KKMLQLVGVTAMFIASKY (H-KKMLQLVGVTAMFIASKY-NH2) [Peptide 241-258]”, in assay [2], the “Average strength (%)” value is 2.3%, the frequency was 54% and the responders is 7. Moreover, the “Number of specific responses” value in assay [2] (Donor 877, HLA-DRB1 typing 01:01/13:01) was determined as 4.

Turning to KPLEKVPMLVPVPVS [Peptide 81-95], in assay [1], the “Number HLA II” value stood at 0.

For the sequence MELTMLDYDMVHFPP [Peptide 327-341], in assay [1], the “Number HLA II” value was found to be 5.

NCVPKKMLQLVGVTA [Peptide 237-251]: the “Number HLA II” value in assay [1] turned out to be 3.

On to NTYTKHQIRQMEMKI [Peptide 275-289], for which, in assay [1], the “Number HLA II” value was 5.

For the sequence “PQLNSALVQDLAKAVAKV (H-PQLNSALVQDLAKAVAKV-NH2) [Peptide 416-433]”, the “Average strength (%)” value in assay [2] stood at 6.1%. Besides, the “Number of specific responses” value in assay [2] (setting [6]) is on record as 13; in assay [2] (setting [4]), 2; in assay [2] (Donor 23, HLA-DRB1 typing 04:01/13:01), 5; in assay [2] (Donor 30, HLA-DRB1 typing 07:01/11:01), 2; in assay [2] (setting [5]), 5; in assay [2] (setting [3]), 5. For the same sequence, the “Number of specific responses” value in assay [2] (Donor 996, HLA-DRB1 typing 08:04/14:08) came out at 2. The sequence also registered a frequency in assay [2] of 77%. In assay [2], the responders was determined as 10. The “Number of specific responses, total” value in assay [2] worked out at 39.

For “PTLQHYLSYTEESLLPVM (H-PTLQHYLSYTEESLLPVM-NH2) [Peptide 363-380]”, in assay [2], the “Average strength (%)” value came out at 1.1%; the frequency amounted to 38%; the “Number of specific responses, total” value is 7. Moreover, the “Number of specific responses” value in assay [2] (setting [6]) is reported as 2. In assay [2] (setting [7]), the “Number of specific responses” value was found to be 2.

Take QAFSDVILAVNDVDA [Peptide 144-158]: in assay [1], the “Number HLA II” value was 5.

For QGLTKHMTVKNKYAT [Peptide 392-406], the “Number HLA II” value in assay [1] was 2.

On to QHYLSYTEESLLPVM [Peptide 366-380], for which the “Number HLA II” value in assay [1] was determined as 8.

REVTGNMRAILIDWL [Peptide 195-209]: the “Number HLA II” value in assay [1] was 5.

Turning to RPLPLHFLRRASKIG [Peptide 299-313], the “Number HLA II” value in assay [1] was 6.

Consider “RPLPLHFLRRASKIGEVDV (H-RPLPLHFLRRASKIGEVDV-NH2) [Peptide 299-317]”, for which the “Average strength (%)” value in assay [2] is recorded as 5.0%. In addition, the “Number of specific responses” value is recorded as 8 in assay [2] (setting [4]); 6 in assay [2] (setting [5]); 2 in assay [2] (Donor 32, HLA-DRB1 typing 03:01); 6 in assay [2] (setting [3]); 4 in assay [2] (setting [7]). The same sequence showed a frequency in assay [2] of 77%. Further, the responders in assay [2] is listed as 10. For the same sequence, the “Number of specific responses, total” value in assay [2] worked out at 33.
